Measurements published in patent US20220119354A1, “DIAMINO-SUBSTITUTED PYRIDINES AND PYRIMIDINES AS HERBICIDES” (FMC Corporation, priority 2019, published 2022).

What was measured:
Type in all cases: in vivo
[1] = system: foxtail, giant (Setaria faberii); experiment: Test A postemergence, giant foxtail; conditions: 0 to 100 scale
In short: (§1)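 Using a solvent/surfactant formulation, test chemicals were sprayed onto freshly seeded soil or onto 2–10 cm seedlings at the one- to two-leaf stage. Visual injury ratings on a 0–100 scale were made about 10 d later in the greenhouse.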

[2] = system: foxtail, giant (Setaria faberii); experiment: Test A preemergence, giant foxtail; conditions: 0 to 100 scale; for Foxtail, Giant plant response rating: 0 is no effect, 100 is complete control
In short: as §1

[3] = system: pigweed (Amaranthus retroflexus); experiment: Test A preemergence, pigweed; conditions: 0 to 100 scale; for Pigweed plant response rating: 0 is no effect, 100 is complete control
In short: as §1

[4] = system: kochia (Kochia scoparia); experiment: Test A postemergence, kochia; conditions: 0 to 100 scale
In short: as §1

[5] = system: rice (Oryza sativa); experiment: Test B flooded paddy test, rice; conditions: Flood, 250 g ai/ha, applied to paddy water, 2-leaf stage, visual evaluation after 13 to 15 d
In short: (§2)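 Pots flooded to 3 cm above the soil when treated, with test compound added straight to the water and the flood maintained. Treated plants were at the 2-leaf stage and stayed 13–15 d in greenhouse. Response versus untreated controls scored visually from 0 (no effect) to 100 (complete control).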

[6] = system: galium (catchweed bedstraw, Galium aparine); experiment: Test A postemergence, galium; conditions: 0 to 100 scale
In short: as §1

[7] = system: ryegrass, Italian (Lolium multiflorum); experiment: Test A preemergence, Italian ryegrass; conditions: 0 to 100 scale; for Ryegrass, Italian plant response rating: 0 is no effect, 100 is complete control
In short: as §1

[8] = system: ragweed (common ragweed, Ambrosia elatior); experiment: Test A preemergence, ragweed; conditions: 0 to 100 scale; for Ragweed plant response rating: 0 is no effect, 100 is complete control
In short: as §1

[9] = system: pigweed (Amaranthus retroflexus); experiment: Test A postemergence, pigweed; conditions: 0 to 100 scale
In short: as §1

[10] = system: barnyardgrass (Echinochloa crus-galli); experiment: Test B flooded paddy test, barnyardgrass; conditions: Flood, 250 g ai/ha, applied to paddy water, 2-leaf stage, visual evaluation after 13 to 15 d
In short: as §2

[11] = system: corn (Zea mays); experiment: Test A postemergence, corn; conditions: 0 to 100 scale
In short: as §1

[12] = system: barnyardgrass (Echinochloa crus-galli); experiment: Test A preemergence, barnyardgrass; conditions: 0 to 100 scale; for Barnyardgrass plant response rating: 0 is no effect, 100 is complete control
In short: as §1

[13] = system: kochia (Kochia scoparia); experiment: Test A preemergence, kochia; conditions: 0 to 100 scale; for Kochia plant response rating: 0 is no effect, 100 is complete control
In short: as §1

[14] = system: barnyardgrass (Echinochloa crus-galli); experiment: Test A postemergence, barnyardgrass; conditions: 0 to 100 scale
In short: as §1

[15] = system: ducksalad (Heteranthera limosa); experiment: Test B flooded paddy test, ducksalad; conditions: Flood, 250 g ai/ha, applied to paddy water, 2-leaf stage, visual evaluation after 13 to 15 d
In short: as §2

[16] = system: ragweed (common ragweed, Ambrosia elatior); experiment: Test A postemergence, ragweed; conditions: 0 to 100 scale
In short: as §1

[17] = system: sedge, umbrella (small-flower umbrella sedge, Cyperus difformis); experiment: Test B flooded paddy test, umbrella sedge; conditions: Flood, 250 g ai/ha, applied to paddy water, 2-leaf stage, visual evaluation after 13 to 15 d
In short: as §2

[18] = system: wheat (Triticum aestivum); experiment: Test A postemergence, wheat; conditions: 0 to 100 scale
In short: as §1

[19] = system: blackgrass (Alopecurus myosuroides); experiment: Test A postemergence, blackgrass; conditions: 0 to 100 scale
In short: as §1

[20] = system: ryegrass, Italian (Lolium multiflorum); experiment: Test A postemergence, Italian ryegrass; conditions: 0 to 100 scale
In short: as §1

[21] = 125 g ai/ha, 0 no effect, 100 complete control
[22] = 500 g ai/ha, 0 no effect, 100 complete control

CC[C@H](Nc1ncc(C(F)(F)F)c(N)n1)c1coc2ccccc12 [Compound 81]
Plant response rating, Foxtail, Giant [1, 21]: 0
Plant response rating, Foxtail, Giant [1, 22]: 10
Foxtail, Giant plant response rating ([2]; 125 g ai/ha): 0
Foxtail, Giant plant response rating ([2]; 500 g ai/ha): 20
Pigweed plant response rating ([3]; 125 g ai/ha): 0
Pigweed plant response rating ([3]; 500 g ai/ha): 10
Plant response rating, Kochia [4, 21]: 20
Plant response rating, Kochia [4, 22]: 40
Plant response rating, Rice (0 to 100 scale, 0 is no effect, 100 is complete control) [5]: 0
Plant response rating, Galium [6, 21]: 0
Plant response rating, Galium [6, 22]: 30
Ryegrass, Italian plant response rating ([7]; 125 g ai/ha): 0
Ryegrass, Italian plant response rating ([7]; 500 g ai/ha): 60
Ragweed plant response rating ([8]; 125 g ai/ha): 0
Ragweed plant response rating ([8]; 500 g ai/ha): 70
Plant response rating, Pigweed [9, 21]: 0
Plant response rating, Pigweed [9, 22]: 80
Plant response rating, Barnyardgrass (0 to 100 scale, 0 is no effect, 100 is complete control) [10]: 0
Plant response rating, Corn [11, 21]: 0
Plant response rating, Corn [11, 22]: 0
Barnyardgrass plant response rating ([12]; 125 g ai/ha): 0
Barnyardgrass plant response rating ([12]; 500 g ai/ha): 0
Kochia plant response rating ([13]; 125 g ai/ha): 0
Kochia plant response rating ([13]; 500 g ai/ha): 20
Plant response rating, Barnyardgrass [14, 21]: 0
Plant response rating, Barnyardgrass [14, 22]: 0
Plant response rating, Ducksalad (0 to 100 scale, 0 is no effect, 100 is complete control) [15]: 0
Plant response rating, Ragweed [16, 21]: 0
Plant response rating, Ragweed [16, 22]: 20
Plant response rating, Sedge, Umbrella (0 to 100 scale, 0 is no effect, 100 is complete control) [17]: 0
Plant response rating, Wheat [18, 21]: 0
Plant response rating, Wheat [18, 22]: 0
Plant response rating, Blackgrass [19, 21]: 0
Plant response rating, Blackgrass [19, 22]: 0
Plant response rating, Ryegrass, Italian [20, 21]: 0
Plant response rating, Ryegrass, Italian [20, 22]: 0

C[C@H](Nc1nc(N)c(C(F)(F)F)c(C(F)(F)F)n1)c1cc2ccccc2o1 [Compound 66]
Plant response rating, Foxtail, Giant [1, 21]: 0
Plant response rating, Foxtail, Giant [1, 22]: 0
Foxtail, Giant plant response rating ([2]; 125 g ai/ha): 0
Foxtail, Giant plant response rating ([2]; 500 g ai/ha): 0
Pigweed plant response rating ([3]; 125 g ai/ha): 0
Pigweed plant response rating ([3]; 500 g ai/ha): 0
Plant response rating, Kochia [4, 21]: 20
Plant response rating, Kochia [4, 22]: 90
Plant response rating, Rice (0 to 100 scale, 0 is no effect, 100 is complete control) [5]: 0
Plant response rating, Galium [6, 21]: 30
Plant response rating, Galium [6, 22]: 40
Ryegrass, Italian plant response rating ([7]; 125 g ai/ha): 0
Ryegrass, Italian plant response rating ([7]; 500 g ai/ha): 0
Ragweed plant response rating ([8]; 125 g ai/ha): 0
Ragweed plant response rating ([8]; 500 g ai/ha): 0
Plant response rating, Pigweed [9, 21]: 30
Plant response rating, Pigweed [9, 22]: 100
Plant response rating, Barnyardgrass (0 to 100 scale, 0 is no effect, 100 is complete control) [10]: 0
Plant response rating, Corn [11, 21]: 0
Plant response rating, Corn [11, 22]: 20
Barnyardgrass plant response rating ([12]; 125 g ai/ha): 0
Barnyardgrass plant response rating ([12]; 500 g ai/ha): 0
Kochia plant response rating ([13]; 125 g ai/ha): 0
Kochia plant response rating ([13]; 500 g ai/ha): 0
Plant response rating, Barnyardgrass [14, 21]: 0
Plant response rating, Barnyardgrass [14, 22]: 30
Plant response rating, Ducksalad (0 to 100 scale, 0 is no effect, 100 is complete control) [15]: 0
Plant response rating, Ragweed [16, 21]: 0
Plant response rating, Ragweed [16, 22]: 20
Plant response rating, Sedge, Umbrella (0 to 100 scale, 0 is no effect, 100 is complete control) [17]: 0
Plant response rating, Wheat [18, 21]: 0
Plant response rating, Wheat [18, 22]: 0
Plant response rating, Blackgrass [19, 21]: 0
Plant response rating, Blackgrass [19, 22]: 30
Plant response rating, Ryegrass, Italian [20, 21]: 0
Plant response rating, Ryegrass, Italian [20, 22]: 0

C[C@@H](Nc1nc(N)c(C(F)(F)F)c(C(F)(F)F)n1)C1Cc2ccccc2C1 [Compound 67]
Plant response rating, Foxtail, Giant [1, 21]: 0
Plant response rating, Foxtail, Giant [1, 22]: 0
Foxtail, Giant plant response rating ([2]; 125 g ai/ha): 0
Foxtail, Giant plant response rating ([2]; 500 g ai/ha): 0
Pigweed plant response rating ([3]; 125 g ai/ha): 30
Pigweed plant response rating ([3]; 500 g ai/ha): 90
Plant response rating, Kochia [4, 21]: 50
Plant response rating, Kochia [4, 22]: 70
Plant response rating, Rice (0 to 100 scale, 0 is no effect, 100 is complete control) [5]: 0
Plant response rating, Galium [6, 21]: 20
Plant response rating, Galium [6, 22]: 40
Ryegrass, Italian plant response rating ([7]; 125 g ai/ha): 0
Ryegrass, Italian plant response rating ([7]; 500 g ai/ha): 0
Ragweed plant response rating ([8]; 125 g ai/ha): 0
Ragweed plant response rating ([8]; 500 g ai/ha): 0
Plant response rating, Pigweed [9, 21]: 20
Plant response rating, Pigweed [9, 22]: 60
Plant response rating, Barnyardgrass (0 to 100 scale, 0 is no effect, 100 is complete control) [10]: 0
Plant response rating, Corn [11, 21]: 0
Plant response rating, Corn [11, 22]: 0
Barnyardgrass plant response rating ([12]; 125 g ai/ha): 0
Barnyardgrass plant response rating ([12]; 500 g ai/ha): 0
Kochia plant response rating ([13]; 125 g ai/ha): 0
Kochia plant response rating ([13]; 500 g ai/ha): 90
Plant response rating, Barnyardgrass [14, 21]: 0
Plant response rating, Barnyardgrass [14, 22]: 0
Plant response rating, Ducksalad (0 to 100 scale, 0 is no effect, 100 is complete control) [15]: 0
Plant response rating, Ragweed [16, 21]: 0
Plant response rating, Ragweed [16, 22]: 0
Plant response rating, Sedge, Umbrella (0 to 100 scale, 0 is no effect, 100 is complete control) [17]: 0
Plant response rating, Wheat [18, 21]: 0
Plant response rating, Wheat [18, 22]: 0
Plant response rating, Blackgrass [19, 21]: 0
Plant response rating, Blackgrass [19, 22]: 0
Plant response rating, Ryegrass, Italian [20, 21]: 0
Plant response rating, Ryegrass, Italian [20, 22]: 0

Cc1cc(F)cc(OCC(C)Nc2ncc(C(F)(F)F)c(N)n2)c1 (centres unmarked) [Compound 39]
Plant response rating, Foxtail, Giant ([1]; 125 g ai/ha): 0
Plant response rating, Foxtail, Giant ([1]; 500 g ai/ha): 10
Plant response rating, Foxtail, Giant ([2]; 500 g ai/ha): 90
Pigweed plant response rating ([3]; 125 g ai/ha): 70
Plant response rating, Pigweed ([3]; 500 g ai/ha): 80
Plant response rating, Kochia ([4]; 125 g ai/ha): 40
Plant response rating, Kochia ([4]; 500 g ai/ha): 70
Plant response rating, Rice (0 to 100 scale, 0 is no effect, 100 is complete control) [5]: 0
Plant response rating, Galium ([6]; 125 g ai/ha): 70
Plant response rating, Galium ([6]; 500 g ai/ha): 70
Ryegrass, Italian plant response rating ([7]; 125 g ai/ha): 0
Plant response rating, Ryegrass, Italian ([7]; 500 g ai/ha): 10
Ragweed plant response rating ([8]; 125 g ai/ha): 70
Plant response rating, Ragweed ([8]; 500 g ai/ha): 100
Plant response rating, Pigweed ([9]; 125 g ai/ha): 20
Plant response rating, Pigweed ([9]; 500 g ai/ha): 60
Plant response rating, Barnyardgrass (0 to 100 scale, 0 is no effect, 100 is complete control) [10]: 0
Plant response rating, Corn ([11]; 125 g ai/ha): 10
Plant response rating, Corn ([11]; 500 g ai/ha): 20
Barnyardgrass plant response rating ([12]; 125 g ai/ha): 40
Plant response rating, Barnyardgrass ([12]; 500 g ai/ha): 90
Kochia plant response rating ([13]; 125 g ai/ha): 0
Plant response rating, Kochia ([13]; 500 g ai/ha): 80
Plant response rating, Barnyardgrass ([14]; 125 g ai/ha): 0
Plant response rating, Barnyardgrass ([14]; 500 g ai/ha): 0
Plant response rating, Ducksalad (0 to 100 scale, 0 is no effect, 100 is complete control) [15]: 0
Plant response rating, Ragweed ([16]; 125 g ai/ha): 0
Plant response rating, Ragweed ([16]; 500 g ai/ha): 40
Plant response rating, Sedge, Umbrella (0 to 100 scale, 0 is no effect, 100 is complete control) [17]: 0
Plant response rating, Wheat ([18]; 125 g ai/ha): 0
Plant response rating, Wheat ([18]; 500 g ai/ha): 0
Plant response rating, Blackgrass ([19]; 125 g ai/ha): 0
Plant response rating, Blackgrass ([19]; 500 g ai/ha): 0
Plant response rating, Ryegrass, Italian ([20]; 125 g ai/ha): 0
Plant response rating, Ryegrass, Italian ([20]; 500 g ai/ha): 50
